Results as given in patent US7713994B2 (Wyeth LLC, priority 2005, dated 2010).
Read-outs that look alike come from different tables or passages of the source.

Columns and labels:
[1] = molecular target: T1, cyclin D1/cdk 4 enzyme (Homo sapiens, UniProt P11802); assay: CDK4 ELISA kinase assay (phospho-Rb ser 795 detection); type: biochemical
T1 construct: made in house; host or cells: Sf9 insect cells, recombinant baculovirus
Outline: (§1)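 GST-Rb C-terminal fragment coated on plates; partially purified Sf9-expressed cyclin D1/CDK4, cyclin E/CDK2 or cyclin B/CDK1 with 200 μM ATP, pH 7.5 HEPES/MgCl2 buffer, 1 h at 30 °C; screen compound final 10 μg/ml. Phospho-Rb Ser795 detected by antibody ELISA (TMB, A450); % of control, IC50 from background-subtracted inhibition curves.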

[2] = molecular target: T2, cyclin E/CDK2 enzyme (Homo sapiens, UniProt P24941); assay: CDK2 ELISA kinase assay (phospho-Rb ser 795 detection); type: biochemical
T2 construct: made in house; host or cells: Sf9 insect cells, recombinant baculovirus
Method: • 1. High-binding ELISA microtiter plates (Costar) were coated with 40 μl of the kinase substrate (GST fusion of C-terminal fragment of the retinoblastoma susceptibility gene product) diluted to 10 μg/ml in tris-buffered saline (TBS), overnight at 4° C. • 2. Non-specific binding sites were blocked for 1 hour at 4° C. with Superblock in TBS (Pierce), and the plates rinsed with water. • 3. For the screen, 1.5 μl of test compound (200 μg/ml stock in 20% DMSO/20 mM HEPES, pH 7.5) was added to each well. Final dose of the test compound in the assay was 10 ug/ml. […] The kinase reaction (30 μl) was dispensed into each well. Reactions contained 200 μM ATP, 0.5 mg/ml bovine serum albumin (BSA; Sigma), and 0.5 μl partially purified cyclin D1/cdk 4 enzyme*. The enzyme complex is expressed in insect cells (Sf9) infected with recombinant baculovirus and partially purified using ammonium sulfate fractionation. Reaction volumes were adjusted to 30 μl with kinase assay buffer (50 mM HEPES, pH 7.5, 10 mM MgCl2, 5% glycerol, 10 mM 2-mercaptoethanol). • *: For CDK2 assay, 1.0 μl cyclin E/CDK2 enzyme (diluted 1:1000 in kinase assay buffer) was used. The enzyme is isolated from insect cells (Sf9) infected with recombinant baculovirus and partially purified using ammonium sulfate fractionation. For CDK1 assay, 0.08 μl cyclin B/CDK1 enzyme [New England BioLabs; the enzyme is isolated from insect cells (Sf9) infected with recombinant baculovirus carrying human cdc 2 and human cyclin B] was used.
[…] • 5. Plates were incubated at 30° C. for 1 hour. • 6. The reaction mixture was removed by aspiration and replaced with 250 μl TBS containing 0.1% Tween-20 and 5% nonfat dry milk (blocking buffer). The plates were incubated at 4° C. for 1 hour. • 7. The blocking buffer was removed and replaced with 50 μl of the primary antibody [anti-phospho-Rb ser 795 (New England BioLabs) diluted 1:1000 in blocking buffer]. Incubation was at 4° C. for 16-20 hours. • 8. The wells were rinsed 3 times with 250 μl of TBS containing 0.1% Tween-20 followed by the addition of 50 μl of secondary antibody [anti-rabbit IgG conjugated to horseradish peroxidase (Amersham Life Science) diluted 1:1000 in blocking buffer]. • 9. After a 1 hour incubation at room temperature, the wells were rinsed 3 times with 250 μl of TBS/0.1% Tween 20. • 10. TMB (3,3′,5,5′-tetramethylbenzidine dihydrochloride) substrate solution (100 μl; Pierce) was added to each well and the color development reaction allowed to proceed 5-10 minutes at room temperature with shaking. The reaction was stopped by the addition of 2N sulfuric acid (100 μl) and the absorbance values read at 450 nm in a microplate reader (Molecular Devices). Analysis of Results: • 1. The percentage of the absorbance value in wells containing the test compound relative to control wells (no test agent) was determined. • 2. IC50 values of selected compounds were determined from inhibition curves, after subtracting background values (no substrate).

[3] = molecular target: T3, cyclin B/CDK1 enzyme (Homo sapiens, UniProt P06493); assay: CDK1 ELISA kinase assay (phospho-Rb ser 795 detection); type: biochemical
T3 construct: purchased New England BioLabs; host or cells: Sf9 insect cells, recombinant baculovirus
Outline: as §1

[4] = test system: BT474; assay: Cytotoxicity assay (SRB), BT474; type: cell-based
Outline: (§2)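 Seeding: BT474 12000, HCT-116 4000, LoVo 6000, MCF-7 6000 cells/well; overnight attachment, 37 °C, 7% CO2. Drug exposure 3 d (BT474 6 d), RPMI 1640 + 5% FBS. Readout: TCA fix, 0.4% SRB, Tris solubilisation, A540.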

[5] = test system: LoVo; assay: Cytotoxicity assay (SRB), LoVo; type: cell-based; conditions: Homo sapiens, LoVo, 72 h, LoVo cells, SRB, read-out: In Vitro Cellular Activity IC50 LOVO
Outline: as §2

[6] = test system: HCT-116; assay: Cytotoxicity assay (SRB), HCT-116; type: cell-based; conditions: Homo sapiens, HCT-116, 72 h, HCT116 cells, 3 days, SRB; read-out: In Vitro Cellular Activity IC50 HCT116
Outline: as §2

[7] = test system: MCF-7; assay: Cytotoxicity assay (SRB), MCF-7; type: cell-based; conditions: Homo sapiens, MCF7, 72 h, MCF-7 cells, 3 days, SRB; read-out: In Vitro Cellular Activity IC50 MCF-7
Outline: as §2

[8] = In Vitro Enzyme Assays, 200 μM ATP, read-out: CDK4 IC50
[9] = In Vitro Enzyme Assays, read-out: CDK2 IC50
[10] = In Vitro Enzyme Assays, read-out: CDK1 IC50
[11] = Homo sapiens, BT-474, 144 h, BT474 cells, SRB, 6 days; read-out: In Vitro Cellular Activity IC50 BT474
[12] = In Vitro Enzyme Assay, cyclin D1/cdk 4, read-out: CDK4 IC50
[13] = In Vitro Enzyme Assay, cyclin E/CDK2, read-out: CDK2 IC50
[14] = In Vitro Enzyme Assay, cyclin B/CDK1, read-out: CDK1 IC50
[15] = Homo sapiens, BT-474, 144 h, BT474 cells, 6 days, SRB; read-out: In Vitro Cellular Activity IC50 BT474
[16] = In Vitro Enzyme Assay, read-out: CDK4 IC50
[17] = In Vitro Enzyme Assay, read-out: CDK2 IC50
[18] = In Vitro Enzyme Assay, read-out: CDK1 IC50

T1 sequence (P11802 whole entry, species assumed): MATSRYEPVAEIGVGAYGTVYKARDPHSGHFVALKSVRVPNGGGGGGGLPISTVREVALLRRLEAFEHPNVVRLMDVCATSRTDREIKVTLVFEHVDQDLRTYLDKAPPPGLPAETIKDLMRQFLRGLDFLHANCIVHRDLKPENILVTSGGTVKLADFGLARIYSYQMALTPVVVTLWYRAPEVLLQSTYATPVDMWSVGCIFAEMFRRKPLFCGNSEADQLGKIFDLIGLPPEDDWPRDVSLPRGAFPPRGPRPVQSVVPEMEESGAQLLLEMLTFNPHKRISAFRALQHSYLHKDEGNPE
T1 sequence (P24385 whole entry partner, species assumed): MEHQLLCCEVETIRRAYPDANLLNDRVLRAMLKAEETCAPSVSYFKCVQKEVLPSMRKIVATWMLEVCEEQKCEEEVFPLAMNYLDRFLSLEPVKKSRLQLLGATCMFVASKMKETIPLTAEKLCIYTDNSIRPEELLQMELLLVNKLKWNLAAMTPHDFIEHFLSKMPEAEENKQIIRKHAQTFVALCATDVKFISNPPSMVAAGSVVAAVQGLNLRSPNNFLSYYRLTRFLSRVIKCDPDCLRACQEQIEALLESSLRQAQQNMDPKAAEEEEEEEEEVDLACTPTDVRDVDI
T3 sequence (P06493 whole entry): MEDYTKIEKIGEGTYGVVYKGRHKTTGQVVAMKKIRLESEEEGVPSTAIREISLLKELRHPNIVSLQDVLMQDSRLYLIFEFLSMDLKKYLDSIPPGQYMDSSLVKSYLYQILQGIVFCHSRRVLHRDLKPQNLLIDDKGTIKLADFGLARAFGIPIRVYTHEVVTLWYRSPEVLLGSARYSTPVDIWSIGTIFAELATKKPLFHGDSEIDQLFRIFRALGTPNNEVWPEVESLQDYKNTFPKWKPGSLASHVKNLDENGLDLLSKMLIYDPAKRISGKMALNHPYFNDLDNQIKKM
T3 sequence (P14635 whole entry partner): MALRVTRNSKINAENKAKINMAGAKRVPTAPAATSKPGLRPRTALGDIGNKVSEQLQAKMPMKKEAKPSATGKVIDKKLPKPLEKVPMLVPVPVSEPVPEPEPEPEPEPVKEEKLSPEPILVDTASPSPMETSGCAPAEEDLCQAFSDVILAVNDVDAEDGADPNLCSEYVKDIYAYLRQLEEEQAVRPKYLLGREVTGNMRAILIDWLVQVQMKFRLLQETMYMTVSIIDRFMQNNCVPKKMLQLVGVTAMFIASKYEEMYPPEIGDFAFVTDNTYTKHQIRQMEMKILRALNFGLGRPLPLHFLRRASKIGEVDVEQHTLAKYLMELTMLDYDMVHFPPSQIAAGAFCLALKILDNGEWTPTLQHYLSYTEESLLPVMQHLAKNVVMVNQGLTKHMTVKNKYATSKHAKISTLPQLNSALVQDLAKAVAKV

Row | SMILES | IC50 [1, 12] [µM] | IC50 [2, 13] [µM] | IC50 [3, 14] [µM] | other results
1 | O=C1NC(=O)c2ccc(Nc3ccccc3)cc2/C1=C/Nc1ccc(CN2CCCCC2)cc1 [Example 128, (4Z)-6-Anilino-4-({[4-(piperidin-1-ylmethyl)phenyl]amino}methylene)isoquinoline-1,3(2H,4H)-dione] |  |  |  | IC50 [1, 8]: 1.8 µM; IC50 [2, 9]: > 50 µM; IC50 [3, 10]: > 50 µM; IC50 [4, 11]: 3.1 µM; IC50 ([5]; three days): 2.1 µM
2 | C[C@@H]1CN(c2ccc(N/C=C3\C(=O)NC(=O)c4ccc(I)cc43)cc2)C[C@H](C)N1C [Example 234, (4Z)-6-Iodo-4-[({4-[(3R,5S)-3,4,5-trimethylpiperazin-1-yl]phenyl}amino)methylene]-isoquinoline-1,3(2H,4H)-dione] |  |  |  | IC50 [1, 8]: 2.8 µM; IC50 [2, 9]: > 50 µM; IC50 [3, 10]: > 50 µM; IC50 [4, 11]: 2.5 µM; IC50 ([5]; three days): 3.4 µM
3 | O=C(O)C=Cc1ccc(-c2ccc3c(c2)C(=CNCc2ccc(O)c(O)c2)C(=O)NC3=O)cc1 [Example 788, 3-(4-{4-[(3,4-Dihydroxy-benzylamino)-methylene]-1,3-dioxo-1,2,3,4-tetrahydro-isoquinolin-6-yl}-phenyl)-acrylic acid] | 0.2 | 17.6 | 17.6 | 
4 | CCN(CC)CCn1ccc(-c2ccc3c(c2)C(=CNc2ccc(N4CCN(C)CC4)cc2)C(=O)NC3=O)c1 [Example 854, 6-[1-(2-Diethylamino-ethyl)-1H-pyrrol-3-yl]-4-{[4-(4-methyl-piperazin-1-yl)-phenylamino]-methylene}-4H-isoquinoline-1,3-dione] | 0.61 | > 50 | > 50 | 
5 | CCCOc1ccc(CN/C=C2\C(=O)NC(=O)c3ccc(Br)cc32)cc1C(=O)O [Example 352, 5-({[(Z)-(6-Bromo-1,3-dioxo-2,3-dihydroisoquinolin-4(1H)-ylidene)methyl]amino}methyl)-2-propoxybenzoic acid] |  |  |  | IC50 [1, 8]: 1.9 µM; IC50 [2, 9]: 12 µM; IC50 [3, 10]: 22.6 µM
6 | O=C1NC(=O)c2ccccc2C1=CNCC(O)c1ccc(O)c(O)c1 (stereo not drawn) [Example 564, 4-{[2-(3,4-Dihydroxy-phenyl)-2-hydroxy-ethylamino]-methylene}-4H-isoquinoline-1,3-dione] | 12.8 | 13.8 | 16.9 | 
7 | CN1CCN(c2ccc(NC=C3C(=O)NCc4cc(Br)ccc43)cc2)CC1 [Example 842, 7-Bromo-4-{[4-(4-methyl-piperazin-1-yl)-phenylamino]-methylene}-1,4-dihydro-2H-isoquinolin-3-one] | 2.3 | > 50 | > 50 | IC50 [4, 15]: 7.2 µM; IC50 [6]: 4.5 µM; IC50 ([5]; 3 days): 5.7 µM
8 | CN1CCN(c2ccc(NC=C3C(=O)NC(=O)c4ccc(-c5ccc6c(ccn6CC(N)=O)c5)cc43)cc2)CC1 [Example 851, 2-[5-(4-{[4-(4-Methyl-piperazin-1-yl)-phenylamino]-methylene}-1,3-dioxo-1,2,3,4-tetrahydro-isoquinolin-6-yl)-indol-1-yl]-acetamide] | 0.79 | 10.3 | 2.7 | 
9 | CONCCCc1ccc(N/C=C2\C(=O)NC(=O)c3ccc(Br)cc32)cc1 [Example 875, (4Z)-6-bromo-4-[({4-[3-(methoxyamino)propyl]phenyl}amino)methylene]isoquinoline-1,3(2H,4H)-dione] |  |  |  | IC50 [1, 16]: 1.9 µM; IC50 [2, 17]: 2.8 µM; IC50 [3, 18]: 15.1 µM; IC50 [6]: 9.5 µM; IC50 ([5]; 3 days): 12.5 µM; IC50 [7]: 10.3 µM
10 | CN(C)CCCN(C)c1ccc(N/C=C2\C(=O)NC(=O)c3ccc(Br)cc32)cc1 [Example 876, (4Z)-6-Bromo-4-[({4-[[3-(dimethylamino)propyl](methyl)amino]phenyl}amino)methylene]isoquinoline-1,3(2H,4H)-dione] |  |  |  | IC50 [1, 16]: 14.4 µM; IC50 [2, 17]: > 50 µM; IC50 [3, 18]: > 50 µM; IC50 [6]: 4.2 µM; IC50 ([5]; 3 days): 8.6 µM; IC50 [7]: 5.3 µM
11 | CN1CCN(c2ccc(NC=C3C(=O)NC(=O)c4ccc(-c5ccn(CC(N)=O)c5)cc43)cc2)CC1 [Example 853, 2-[3-(4-{[4-(4-Methyl-piperazin-1-yl)-phenylamino]-methylene}-1,3-dioxo-1,2,3,4-tetrahydro-isoquinolin-6-yl)-pyrrol-1-yl]-acetamide] | 0.12 | > 50 | > 50 | 
12 | N#CCc1ccc(NC=C2C(=O)NC(=O)c3ccccc32)cc1 [Example 555, {4-[(1,3-Dioxo-2,3-dihydro-1H-isoquinolin-4-ylidenemethyl)-amino]-phenyl}-acetonitrile] | 14.7 | 21.3 | 45 | 
13 | O=C(O)CCc1ccc(-c2ccc3c(c2)C(=CNCc2ccc(O)c(O)c2)C(=O)NC3=O)cc1 [Example 819, 3-(4-{4-[(3,4-Dihydroxy-benzylamino)-methylene]-1,3-dioxo-1,2,3,4-tetrahydro-isoquinolin-6-yl}-phenyl)-propionic acid] | 0.81 | 27.1 | 27.1 | 
14 | COc1ccc(NC=C2C(=O)NCc3cc(Br)ccc32)cc1 [Example 841, 7-Bromo-4-[(4-methoxy-phenylamino)-methylene]-1,4-dihydro-2H-isoquinolin-3-one] |  | 25.3 | > 50 | IC50 [4, 15]: 47.8 µM; IC50 [6]: 36 µM; IC50 ([5]; 3 days): 34 µM
15 | O=C1NC(=O)c2ccccc2C1=CNC(Cc1ccc(O)c(O)c1)C(=O)O (stereo not drawn) [Example 567, 3-(3,4-Dihydroxy-phenyl)-2-[(1,3-dioxo-2,3-dihydro-1H-isoquinolin-4-ylidenemethyl)-amino]-propionic acid] | 11.9 | 16.2 | 17.7 | 
16 | NS(=O)(=O)c1ccc(CNC=C2C(=O)NC(=O)c3ccc(C=Cc4ccncc4)cc32)cc1 [Example 653, 4-({[1,3-Dioxo-6-(2-pyridin-4-yl-vinyl)-2,3-dihydro-1H-isoquinolin-4-ylidenemethyl]-amino}-methyl)-benzenesulfonamide] | 0.21 | 45.5 | > 50 | 
